# Measured values reported in patent US20150079105A1, “TREATMENT OF ACUTE INFLAMMATION IN THE RESPIRATORY TRACT” (UCL Business PLC, priority 2012, published 2015).
# System: S. pneumoniae
# Experiment: S. pneumoniae challenge of mice (bacteria-induced ALI and host defense)
# Assay type: in vivo
# Details: 5 mg/kg i.p. after 30 min
# Procedure: FIG. 4. Mice were killed three hours after inoculation with S. pneumoniae (serotype 19, 50 μl/mouse, 5×10^6 CFU/mouse i.n.) with and without the PAR1 antagonist RWJ-58259 (5 mg/kg) dosed therapeutically i.p. after 30 min. Lungs were lavaged (1.5 ml PBS total) and total BAL fluid leukocytes (a) and neutrophils (b) were quantified. S. pneumoniae was recovered from lung homogenates and individual colonies counted (c). Panels show mean values for n=5/group from two separate experiments. Data were analysed by one way ANOVA with Neuman-Keuls Post Hoc test: ***p<0.0001, *p<0.05.
# FIG. 5. Mice were killed three hours after inoculation with S. pneumoniae (serotype 2, clinical isolate D39, 50 μl/mouse, 5×10^6 CFU/mouse i.n.) with and without the PAR1 antagonist RWJ-58259 (5 mg/kg) dosed therapeutically i.p. after 30 min. Lungs were lavaged (1.5 ml PBS total) and total BAL fluid leukocytes (A), macrophages (B) and neutrophils (C) were quantified. Bronchoalveolar lavage fluid was collected and levels of thrombin-anti-thrombin (TAT) and serum albumin were quantified by ELISA (D and E). Panels show mean values for n=5/group from two separate experiments. Data were analysed by one way ANOVA with Neuman-Keuls Post Hoc test: ***p<0.0001, *p<0.05.
# FIG. 6. Mice were killed three hours after inoculation with S. pneumoniae (serotype 2, clinical isolate D39, 50 μl/mouse, 5×10^6 CFU/mouse i.n.) with and without the PAR1 antagonist RWJ-58259 (5 mg/kg) dosed therapeutically i.p. after 30 min. Lungs were lavaged (1.5 ml PBS total) and bacterial colony forming units (cfu) counted after 3 h (A) and 24 h (B). Bacterial invasive disease was measured by cfu in the lung (C) and spleen (D) after 24 h. Data were analysed by one way ANOVA with Neuman-Keuls Post Hoc test: n.s. not significant. […]
# In order to examine the influence of PAR1 during host defense and in a model of bacteria-induced ALI, mice were challenged with S. pneumoniae (5×10^6 CFU/mouse, i.n.), which is the most common infectious agent responsible for ALI. Mice were inoculated with 50 μl S. pneumoniae (serotype 19, 5×10^6 CFU/mouse i.n.). 3 hours later, animals were sacrificed (urethane i.p. […]), endotracheally cannulated and bronchoalveolar lavage performed (1.5 ml, PBS). Total and differential counts were quantified following cytospin and albumin levels measured by ELISA (Bethyl Laboratories Inc, USA).
# PAR1 antagonism was also found to decrease the number of BAL macrophages (FIG. 5b). Bronchoalveolar lavage fluid was collected and levels of thrombin-anti-thrombin (TAT) and serum albumin were quantified by ELISA (FIG. 4d, e). […] Panels show mean values for n=5/group from two separate experiments. Data were analysed by one way ANOVA with Neuman-Keuls Post Hoc test: ***p<0.0001, *p<0.05. […]
# [1] = serotype 2, D39, after 24 hours
# [2] = serotype 19, 5×10^6 CFU/mouse i.n., 3 h
smiles,measurement,setting,value
NCC[C@H](NC(=O)[C@H](Cc1ccc(F)c(F)c1)NC(=O)Nc1ccc2c(CN3CCCC3)nn(Cc3c(Cl)cccc3Cl)c2c1)C(=O)NCc1ccccc1 [RWJ-58259],PAR1 mediated disruption of the alveolar-capillary barrier (TAT and serum albumin in BAL fluid by ELISA),"serotype 2, D39, 3 h",reduce
same,number of BAL macrophages,"serotype 2, D39, 3 h",decrease
same,S. pneumoniae colony counts recovered from BALF,"serotype 2, D39, 24 hours",unaffected
same,"bacterial invasive disease, cfu in the lung",[1],unaffected
same,"bacterial invasive disease, cfu in the spleen",[1],unaffected
same,S. pneumoniae colony counts recovered from BALF,"serotype 2, D39, after three hours",unaffected
same,neutrophil accumulation (BAL fluid),[2],reduced
same,total cellular infiltration (BAL fluid leukocytes),[2],reduced
same,S. pneumoniae colony counts recovered from whole lung (host defense),"serotype 19, 3 h",unaffected
same,BAL fluid serum albumin following S. pneumoniae challenge,"serotype not stated, 3 h",decreased
